Test [1] deals with Programmed cell death 1 ligand 1 (Homo sapiens) (UniProt Q9NZQ7). The experiment in a line: Inhibition of PD-1/PD-L1 (unknown origin) protein-protein interaction.
The target is the same in test [2]. As to the kind of experiment: Inhibition of PD-1/PD-L1 (unknown origin) interaction incubated for 15 mins by HTRF assay. On the technique in general: In TR-FRET formats the signal depends on donor and acceptor labels being close together.

Here are results for two compounds from BindingDB's records for doi:10.1039/d3md00655g (Henan University, 2024).

Programmed cell death 1 ligand 1 (Homo sapiens), sequence (Q9NZQ7 whole entry, looked up): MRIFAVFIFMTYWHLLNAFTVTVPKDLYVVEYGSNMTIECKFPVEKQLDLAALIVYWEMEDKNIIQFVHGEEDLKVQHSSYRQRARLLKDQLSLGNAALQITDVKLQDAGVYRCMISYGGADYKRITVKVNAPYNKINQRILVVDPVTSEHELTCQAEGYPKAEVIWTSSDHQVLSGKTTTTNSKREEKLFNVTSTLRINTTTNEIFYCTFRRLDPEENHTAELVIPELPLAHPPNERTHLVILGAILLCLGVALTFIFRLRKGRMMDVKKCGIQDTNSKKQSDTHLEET

For orientation: IC50 means the concentration that gives 50% inhibition. With `COc1nc(-c2cccc(-c3ccccc3F)c2C)ccc1CNCCC(N)=O`, it took 0.00093 µM to reach half-maximal inhibition in test [1] (IC50). That is a sub-nanomolar value.

With `Cc1c(COc2ccc(CN3CCNCC3)c(OCc3cn(-c4cccc(C#N)c4)nn3)c2)cccc1-c1ccccc1`, half-maximal inhibition in test [2] (IC50) required 8.52 µM.
